Assay results: BigSolDB 2.1

O=[N+]([O-])/N=C1\NCCN1Cc1ccc(Cl)nc1
solubility (mole fraction)
Conditions | 293.15 K | 298.15 K | 303.15 K | 308.15 K | 313.15 K | 318.15 K | 323.15 K | 328.15 K | 333.15 K
in ethanol | 0.0006 | 0.0008 | 0.0009 | 0.0012 | 0.0015 | 0.0019 | 0.0025 | 0.003 | 0.0036
in ethyl acetate | 0.0027 | 0.0029 | 0.0034 | 0.0039 | 0.0044 | 0.0053 | 0.0061 | 0.0071 | 0.0084
in methanol | 0.0012 | 0.0015 | 0.0018 | 0.0023 | 0.0027 | 0.0036 | 0.0044 | 0.0054 | 0.0067
in methyl acetate | 0.0037 | 0.0042 | 0.0048 | 0.0057 | 0.0067 | 0.0078 | 0.0092 | 0.0107 | –
in n-butanol | 0.0004 | 0.0005 | 0.0006 | 0.0008 | 0.001 | 0.0013 | 0.0017 | 0.0021 | 0.0026
in n-butyl acetate | 0.0015 | 0.0019 | 0.0021 | 0.0027 | 0.0032 | 0.0035 | 0.0037 | 0.0041 | 0.0048
in n-propanol | 0.0005 | 0.0006 | 0.0008 | 0.0011 | 0.0013 | 0.0017 | 0.0022 | 0.0028 | 0.0034
